Experimental data published in patent US20260262643A1, “HERBICIDAL BENZOXAZINES” (FMC CORPORATION, priority 2022, published 2026).

How the values were obtained:
wheat [1] = experiment: Test C preemergence; type: in vivo, Triticum aestivum; settings: preemergence, 0 to 100 scale (0 no effect, 100 complete control)
Description: (§1) Seeds of plant species selected from barnyardgrass (Echinochloa crusgalli), blackgrass (Alopecurus myosuroides), corn (Zea mays), foxtail, giant (giant foxtail, Setaria faberi), green foxtail (Setaria viridis), goosegrass (Eleusine indica), kochia (Bassia scoparia), oat, wild (wild oat, Avena fatua), pigweed, palmer (palmer amaranth, palmer pigweed, Amaranthus palmeri), Pigweed, Redroot (redroot pigweed, Amaranthus retroflexus), ragweed (common ragweed, Ambrosia artemisiifolia), ryegrass, Italian ([…] ryegrass, Lolium multiflorum), soybean (Glycine max), and wheat (Triticum aestivum) were planted into a blend of loam soil and sand and treated preemergence with a directed soil spray using test chemicals formulated in a non-phytotoxic solvent mixture which included a surfactant. At the same time, plants selected from these crops and weed species and also galium (catchweed bedstraw, Galium aparine) and horseweed (Erigeron canadensis) were planted in pots containing the same blend of loam soil and sand and treated with postemergence applications of test chemicals formulated in the same manner. Plants ranged in height from 2 to 10 cm and were in the one- to two-leaf stage for the postemergence treatment. Treated plants and untreated controls were maintained in a greenhouse for 10 days, after which time all treated plants were compared to untreated controls and visually evaluated for injury. Plant response ratings, summarized in Table C, are based on a 0 to 100 scale where 0 is no effect and 100 is complete control. A dash (-) response means no test result.

kochia [2] = experiment: Test C preemergence; type: in vivo, Bassia scoparia; settings: preemergence, 0 to 100 scale (0 no effect, 100 complete control)
In short: (§2)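 Visual injury ratings on a 0–100 scale (100 = complete control) were made against untreated controls 10 days after treatment in the greenhouse. Compounds, formulated with surfactant in non-phytotoxic solvent, were sprayed on soil preemergence or onto one- to two-leaf plants 2–10 cm tall postemergence.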

soybean [3] = experiment: Test C postemergence; type: in vivo, Glycine max; settings: 10 days
Description: as §1

soybean [4] = experiment: Test C preemergence; type: in vivo, Glycine max; settings: preemergence, 0 to 100 scale (0 no effect, 100 complete control)
Description: as §1

corn [5] = experiment: Test C postemergence; type: in vivo, Zea mays; settings: 10 days
Description: as §1

oat, wild [6] = experiment: Test C postemergence; type: in vivo, Avena fatua; settings: 10 days
Description: as §1

ryegrass, Italian [7] = experiment: Test C preemergence; type: in vivo, Lolium multiflorum; settings: preemergence, 0 to 100 scale (0 no effect, 100 complete control)
In short: as §2

blackgrass [8] = experiment: Test C preemergence; type: in vivo, Alopecurus myosuroides; settings: preemergence, 0 to 100 scale (0 no effect, 100 complete control)
In short: as §2

galium = experiment: Test C postemergence; type: in vivo, Galium aparine; settings: postemergence, 10 days
In short: as §2

pigweed, palmer [9] = experiment: Test C preemergence; type: in vivo, Amaranthus palmeri; settings: preemergence, 0 to 100 scale (0 no effect, 100 complete control)
In short: as §2

barnyardgrass [10] = experiment: Test C preemergence; type: in vivo, Echinochloa crusgalli; settings: preemergence, 0 to 100 scale (0 no effect, 100 complete control)
In short: as §2

barnyardgrass [11] = experiment: Test C postemergence; type: in vivo, Echinochloa crusgalli; settings: 10 days
In short: as §2

oat, wild [12] = experiment: Test C preemergence; type: in vivo, Avena fatua; settings: preemergence, 0 to 100 scale (0 no effect, 100 complete control)
Description: as §1

ragweed [13] = experiment: Test C postemergence; type: in vivo, Ambrosia artemisiifolia; settings: 10 days
In short: as §2

green foxtail [14] = experiment: Test C postemergence; type: in vivo, Setaria viridis; settings: 10 days
In short: as §2

green foxtail [15] = experiment: Test C preemergence; type: in vivo, Setaria viridis; settings: preemergence, 0 to 100 scale (0 no effect, 100 complete control)
In short: as §2

ragweed [16] = experiment: Test C preemergence; type: in vivo, Ambrosia artemisiifolia; settings: preemergence, 0 to 100 scale (0 no effect, 100 complete control)
In short: as §2

corn [17] = experiment: Test C preemergence; type: in vivo, Zea mays; settings: preemergence, 0 to 100 scale (0 no effect, 100 complete control)
Description: as §1

kochia [18] = experiment: Test C postemergence; type: in vivo, Bassia scoparia; settings: 10 days
In short: as §2

wheat [19] = experiment: Test C postemergence; type: in vivo, Triticum aestivum; settings: 10 days
Description: as §1

blackgrass [20] = experiment: Test C postemergence; type: in vivo, Alopecurus myosuroides; settings: 10 days
In short: as §2

pigweed, palmer [21] = experiment: Test C postemergence; type: in vivo, Amaranthus palmeri; settings: 10 days
In short: as §2

horseweed = experiment: Test C postemergence; type: in vivo, Erigeron canadensis; settings: 10 days
In short: as §2

ryegrass, Italian [22] = experiment: Test C postemergence; type: in vivo, Lolium multiflorum; settings: 10 days
In short: as §2

[23] = 125 g ai/ha, postemergence, 0 to 100 scale, 0 no effect, 100 complete control
[24] = 500 g ai/ha, postemergence, 0 to 100 scale (0 no effect, 100 complete control)
[25] = Postemergence, 125 g ai/ha, 0 to 100 scale (0 no effect, 100 complete control)

In the case of `COC(=O)N(C)c1ncn(-c2cccc(C(=O)N3C[C@H](C)Oc4c(C)cccc43)c2)n1` [30 0], the “Wheat plant response rating” value (wheat [1]; 500 g ai/ha) is reported as 20, the “Wheat plant response rating” value (wheat [1]; Test C, 125 g ai/ha) is reported as 0 and the “Kochia plant response rating” value (kochia [2]; 500 g ai/ha) is reported as 70. The “Kochia plant response rating” value (kochia [2]; Test C, 125 g ai/ha) was 50, the “Plant response rating, Soybean” value (soybean [3]; [23]) was 70 and the “Plant response rating, Soybean” value (soybean [3]; [24]) was 100. For the same molecule, the “Soybean plant response rating” value (soybean [4]; 500 g ai/ha) was 20, the “Soybean plant response rating” value (soybean [4]; Test C, 125 g ai/ha) was 0 and the “Plant response rating, Corn” value (corn [5]; [23]) was 0. The “Plant response rating, Corn” value (corn [5]; [24]) was 70, the “Plant response rating, Oat, Wild” value (oat, wild [6]; [23]) was 0 and the “Plant response rating, Oat, Wild” value (oat, wild [6]; [24]) was 40. The “Ryegrass, Italian plant response rating” value (ryegrass, Italian [7]; 500 g ai/ha) was 80, the “Ryegrass, Italian plant response rating” value (ryegrass, Italian [7]; Test C, 125 g ai/ha) was 60 and the “Blackgrass plant response rating” value (blackgrass [8]; 500 g ai/ha) was 20. The “Blackgrass plant response rating” value (blackgrass [8]; Test C, 125 g ai/ha) was 0, the “Plant response rating, Galium” value (galium; 125 g ai/ha, 0 to 100 scale, 0 no effect, 100 complete control) was 60 and the “Plant response rating, Galium” value (galium; 500 g ai/ha, 0 to 100 scale (0 no effect, 100 complete control)) was 90. The “Pigweed, Palmer plant response rating” value (pigweed, palmer [9]; 500 g ai/ha) was 80, the “Pigweed, Palmer plant response rating” value (pigweed, palmer [9]; Test C, 125 g ai/ha) was 20 and the “Barnyardgrass plant response rating” value (barnyardgrass [10]; 500 g ai/ha) was 50. For the same molecule, the “Barnyardgrass plant response rating” value (barnyardgrass [10]; Test C, 125 g ai/ha) was 0, the “Plant response rating, Barnyardgrass” value (barnyardgrass [11]; [23]) was 10 and the “Plant response rating, Barnyardgrass” value (barnyardgrass [11]; [24]) was 50. For the same molecule, the “Oat, Wild plant response rating” value (oat, wild [12]; 500 g ai/ha) was 30, the “Oat, Wild plant response rating” value (oat, wild [12]; Test C, 125 g ai/ha) was 20 and the “Plant response rating, Ragweed” value (ragweed [13]; [23]) was 0. The “Plant response rating, Ragweed” value (ragweed [13]; [24]) was 50, the “Plant response rating, Foxtail, Green” value (green foxtail [14]; [23]) was 10 and the “Plant response rating, Foxtail, Green” value (green foxtail [14]; [24]) was 50. The “Foxtail, Green plant response rating” value (green foxtail [15]; 500 g ai/ha) was 100, the “Foxtail, Green plant response rating” value (green foxtail [15]; Test C, 125 g ai/ha) was 80 and the “Ragweed plant response rating” value (ragweed [16]; 500 g ai/ha) was 20. For the same molecule, the “Ragweed plant response rating” value (ragweed [16]; Test C, 125 g ai/ha) was 0, the “Corn plant response rating” value (corn [17]; 500 g ai/ha) was 10 and the “Corn plant response rating” value (corn [17]; Test C, 125 g ai/ha) was 0. For the same molecule, the “Plant response rating, Kochia” value (kochia [18]; [23]) was 50, the “Plant response rating, Kochia” value (kochia [18]; [24]) was 60 and the “Plant response rating, Wheat” value (wheat [19]; [23]) was 10. For the same molecule, the “Plant response rating, Wheat” value (wheat [19]; [24]) was 30, the “Plant response rating, Blackgrass” value (blackgrass [20]; [23]) was 0 and the “Plant response rating, Blackgrass” value (blackgrass [20]; [24]) was 80. The “Plant response rating, Pigweed, Palmer” value (pigweed, palmer [21]; [23]) was 30, the “Plant response rating, Pigweed, Palmer” value (pigweed, palmer [21]; [24]) was 40 and the “Plant response rating, Horseweed” value (horseweed; [23]) was 30. For the same molecule, the “Plant response rating, Horseweed” value (horseweed; [24]) was 30, the “Plant response rating, Ryegrass, Italian” value (ryegrass, Italian [22]; [23]) was 10 and the “Plant response rating, Ryegrass, Italian” value (ryegrass, Italian [22]; [24]) was 80.
With `CCOC[C@H]1CN(C(=O)c2cc(-n3cnc(C(C)C)n3)cc3c2OCO3)c2cccc(Cl)c2O1` [40 0] the “Wheat plant response rating” value (wheat [1]; 500 g ai/ha) was 40, the “Kochia plant response rating” value (kochia [2]; 500 g ai/ha) was 90 and the “Plant response rating, Soybean” value (soybean [3]; [25]) was 20. For the same molecule, the “Soybean plant response rating” value (soybean [4]; 500 g ai/ha) was 100, the “Plant response rating, Corn” value (corn [5]; [25]) was 30 and the “Plant response rating, Oat, Wild” value (oat, wild [6]; [25]) was 0. For the same molecule, the “Ryegrass, Italian plant response rating” value (ryegrass, Italian [7]; 500 g ai/ha) was 90, the “Blackgrass plant response rating” value (blackgrass [8]; 500 g ai/ha) was 50 and the “Pigweed, Palmer plant response rating” value (pigweed, palmer [9]; 500 g ai/ha) was 100. The “Barnyardgrass plant response rating” value (barnyardgrass [10]; 500 g ai/ha) was 100, the “Plant response rating, Barnyardgrass” value (barnyardgrass [11]; [25]) was 30 and the “Oat, Wild plant response rating” value (oat, wild [12]; 500 g ai/ha) was 30. The “Plant response rating, Ragweed” value (ragweed [13]; [25]) was 60, the “Plant response rating, Foxtail, Green” value (green foxtail [14]; [25]) was 20 and the “Foxtail, Green plant response rating” value (green foxtail [15]; 500 g ai/ha) was 100. For the same molecule, the “Ragweed plant response rating” value (ragweed [16]; 500 g ai/ha) was 70, the “Corn plant response rating” value (corn [17]; 500 g ai/ha) was 0 and the “Plant response rating, Kochia” value (kochia [18]; [25]) was 70. For the same molecule, the “Plant response rating, Wheat” value (wheat [19]; [25]) was 20, the “Plant response rating, Blackgrass” value (blackgrass [20]; [25]) was 40 and the “Plant response rating, Pigweed, Palmer” value (pigweed, palmer [21]; [25]) was 100. For the same molecule, the “Plant response rating, Horseweed” value (horseweed; [25]) was 40 and the “Plant response rating, Ryegrass, Italian” value (ryegrass, Italian [22]; [25]) was 0.
